Values after ≈ are worked out from the molar mass of the structure shown. Read-outs that look alike come from different tables or passages of the source.
How the values were obtained:
[1] = Pharmacokinetic evaluation of compound of Example 1 in mice (plasma concentration, LC-MS/MS); format: in vivo; conditions: female ICR mice, tail vein, 3 mg/kg
Protocol: 1. Pharmacokinetic Evaluation of Compound of Example 1 in Mice […] The blood samples were put in sampling tubes and stored under ice cooling, after which they were centrifuged for 5 minutes at 10,500×g and at 4° C. The plasma thus obtained was accurately divided into 10 μL amounts and stored at −20° C. until they were analyzed. The plasma concentrations of the compound of Example 1 and the active form thereof were measured using a liquid chromatography mass spectrometer (LC-MS/MS: Waters, Quattro Ultima Pt), and quantified by internal standard method. […] MultiScreen™) and analyzed by LC-MS/MS (Waters, Quattro Ultima Pt). In the chromatogram thus obtained, the surface area of the peaks for the compound of Example 1, the active form thereof (the parent compound of the compound of Example 1), and the internal standard substance were analyzed with analytic software (Waters: MassLynx 4.0), and the concentration of the compound included in the plasma was calculated by internal standard method. The active form concentration after administration of the compound of Example 1 was corrected with the molecular weight ratio, that is, the value of (the molecular weight of the compound of Example 1)/(the molecular weight of the active form).

[2] = Comparative test of solubility in water (Britton-Robinson buffer); format: physicochemical; conditions: for solubility: aqueous buffer, Britton-Robinson buffer (ionic strength: 0.3), 25° C.; for Solubility in water compared with the parent compound: conclusion from Table 1
[3] = buffer
[4] = Pharmacokinetic evaluation of compounds of Examples 2 and 3 in mice (plasma concentration, LC-MS); format: in vivo; conditions: female ICR mice, tail vein, 3 mg/kg as active form equivalent; for Plasma concentration of the administered compound: 20 min to 8 h; for Plasma concentration of the administered compound / Concentration of the active form in plasma after administration of the compound: FIG. 2
Protocol: 2. Pharmacokinetic Evaluation of Compound of Examples 2 and 3 in Mice
The compounds of Examples 2 and 3 were dissolved in respective concentrations of 1 and 1.5 mg/mL with 5% glucose (Otsuka Pharmaceutical) containing a 10 mM hydrochloric acid solution (Wako Pure Chemicals), and the active form was dissolved in a concentration of 0.5 mg/mL in 5% glucose (Otsuka Pharmaceutical) containing a 10 mM hydrochloric acid solution (Wako Pure Chemicals).
Using seven-week-old female ICR mice (Charles River Japan), with two mice per group, the compound of the present invention and the active form thereof were administered into the tail vein in a dose of 3 mg/kg, calculated as an active form equivalent. The tail vein was punctured 20 minutes, 45 minutes, and 1.5, 3, 5, and 8 hours after administration, and blood was collected with a heparin-treated pipette. The blood samples were put in sampling tubes and stored under ice cooling, after which they were centrifuged for 5 minutes at 10,500×g and at 4° C. The plasma thus obtained was accurately divided into 5 μL amounts and stored at −20° C. until they were analyzed.
The plasma concentrations of the compounds of Examples 2 and 3 and the active form thereof were measured using a liquid chromatography mass spectrometer (LC-MS: Waters, ZQ mass detector), and quantified by internal standard method. Imipramine hydrochloride (Sigma) was dissolved in a mixed solution of acetonitrile and methanol (9:1) so that the concentration would be 1 μmol/L, to prepare an internal standard substance solution (IS solution). The plasma was melted, after which 50 μL of IS solution was added thereto and mixed while still cooled with ice, and this was centrifuged (deproteinated) for 10 minutes at 1607×g and at 4° C., after which the supernatant was analyzed by LC-MS (Waters, ZQ mass detector). In the chromatogram thus obtained, the surface area of the peaks for the compounds of Examples 2 and 3, the active form thereof, and the internal standard substance were analyzed with analytic software (Waters: MassLynx 4.0), and the concentration of the compound included in the plasma was calculated by internal standard method.

[5] = Stability in solution in Britton-Robinson buffer; conditions: Britton-Robinson buffer (ionic strength: 0.3), 25° C.
[6] = pH 3, read-out: Solubility (mg/mL) pH 3
[7] = pH 7, read-out: Solubility (mg/mL) pH 7

| Structure (SMILES) | Conversion into the active form in the bodies of the mice [1] | Plasma concentration of the active form after administration of the compound ([1]; FIG. 1) | Plasma concentration of the administered compound ([1]; FIG. 1) | solubility [2, 6] [mg/mL] | solubility [2, 7] [mg/mL] | Solubility in water compared with the parent compound [2] | Stability in solution (remainder (%) after 24 h in dark place) pH 3 [3] [%] | Stability in solution (remainder (%) after 24 h in dark place) pH 7 [3] [%] | Conversion into the active form in the bodies of the mice [4] | Plasma concentration of the administered compound [4] | Concentration of the active form in plasma after administration of the compound [4] | Stability in solution (remainder (%) after 24 h in dark place) pH 2 ([5]; pH 2 (printed in pH 3 column), 24 h in dark place) | Stability in solution (remainder (%) after 24 h in dark place) pH 4 ([5]; pH 4 (printed in pH 3 column), 24 h in dark place) | Stability in solution (remainder (%) after 24 h in dark place) pH 7 ([5]; pH 7, 24 h in dark place) [%] |
| --- | --- | --- | --- | --- | --- | --- | --- | --- | --- | --- | --- | --- | --- | --- |
| N[C@@H](CCC(=O)Nc1ncccc1-c1cc(Cc2ccc(COc3ccccn3)cc2)no1)C(=O)O [Example 1, (S)-2-Amino-4-(3-(3-(4-(pyridin-2-yloxymethyl)-benzyl)-isoxazol-5-yl)-pyridin-2-ylcarbamoyl)-butyric acid] | rapidly converted into the active form | increased quickly from immediately after administration | decreased quickly after administration | 1.1 (≈ 2260 µM) | 0.3 (≈ 615 µM) | higher solubility in water than does the parent compound | 96 | 92 | – | – | – | – | – | – |
| COC(=O)[C@@H](N)CCC(=O)Nc1ncccc1-c1cc(Cc2ccc(COc3ccccn3)cc2)no1 [Example 2, (S)-2-Amino-4-(3-{-[4-(pyridin-2-yloxymethyl)-benzyl]soxazol-5-yl}-pyridin-2-ylcarbamoyl)-butyric acid methyl ester] | – | – | – | 45 (≈ 89700 µM) | 0.2 (≈ 399 µM) | higher solubility in water than does the parent compound | 88 | 44 | rapidly converted into the active form | not detected | rose sharply after administration | – | – | – |
| CN(C)CCOC(=O)[C@@H](N)CCC(=O)Nc1ncccc1-c1cc(Cc2ccc(COc3ccccn3)cc2)no1 [Example 3, (S)-2-Amino-4-(3-{3-[4-(pyridin-2-yloxymethyl)-benzyl]-isoxazol-5-yl}-pyridin-2-ylcarbamoyl)-butyric acid 2-dimethylamino-ethyl ester] | – | – | – | 12 (≈ 21500 µM) | 1.1 (≈ 1970 µM) | higher solubility in water than does the parent compound | 116 | 82 | rapidly converted into the active form | not detected | rose sharply after administration | – | – | – |
| Nc1ncccc1-c1cc(Cc2ccc(COc3ccccn3)cc2)no1 [Parent compound, 3-(3-(4-(Pyridin-2-yloxymethyl)-benzyl)-isoxazol-5-yl)-pyridin-2-ylamine] | – | – | – | 0.29 (≈ 809 µM) | 0.001 (≈ 2.79 µM) | – | – | – | – | – | – | 90 (pH 2) % | 99 (pH 4) % | 95 |

Source: patent publication US8188119B2, “Pyridine derivatives substituted with heterocyclic ring and γ-glutamylamino group, and antifungal agents containing same” (Eisai R&D Management Co., Ltd, priority 2008, dated 2012)
